Experimental data published in patent publication US9695152B2, “3,4-dihydro-2H-isoquinoline-1-one and 2,3-dihydro-isoindol-1-one compounds” (Hoffmann-La Roche Inc., priority 2013, dated 2017).

Tests used:
[1] = molecular target: CYP11B2 (Homo sapiens (Human), UniProt P19099); test: G-402 cellular enzyme assay, human CYP11B2 (aldosterone release, HTRF); assay type: cell-based; details: G-402 cells expressing human CYP11B2, 1 μM Deoxycorticosterone
Excerpt: (§1) Herein we identified the use of the G-402 cell line as a host cell to ectopically express (transiently or stably) enzymes of the CYP11 family. Specifically we developed stable G-402 cells expressing ectopically human CYP11B1, human CYP11B2, human CYP11A1, cynmolgus CYP11B1 or cynomolgus CYP11B2 enzyme activity. Importantly the identified cell line G-402 expresses co-factors (adrenodoxin and adrenodoxin reductase) important for the activity of the CYP11 family and no relevant enzyme activity of the CYP11 family (in comparison to H295R cells) was detected in these cells. Therefore the G-402 cell line is uniquely suited as a host cell for the ectopic expression of enzymes from the CYP11 family.
(§2) G-402 cells can be obtained from ATCC (CRL-1440) and were originally derived from a renal leiomyoblastoma.
(§3) The expression plasmids contains the ORF for either human/cyno CYP11B1 or CYP11B2 under the control of a suitable promoter (CMV-promoter) and a suitable resistance marker (neomycin). Using standard techniques the expression plasmid is transfected into G-402 cells and these cells are then selected for expressing the given resistance markers. Individual cell-clones are then selected and assessed for displaying the desired enzymatic activity using 11-Deoxycorticosterone (Cyp11B2) or 11-Deoxycortisol (Cyp11B1) as a substrate.
(§4) G-402 cells expressing CYP11 constructs were established as described above and maintained in McCoy's 5a Medium Modified, ATCC Catalog No. 30-2007 containing 10% FCS and 400 μg/ml G418 (Geneticin) at 37° C. under an atmosphere of 5% CO2/95% air. Cellular enzyme assays were performed in DMEM/F12 medium containing 2.5% charcoal treated FCS and appropriate concentration of substrate (0.3-10 uM 11-Deoxycorticosterone, 11-Deoxycortisol or Corticosterone). For assaying enzymatic activity, cells were plated onto 96 well plates and incubated for 16 h. An aliquot of the supernatant is then transferred and analyzed for the concentration of the expected product (Aldosterone for CYP11B2; Cortisol for CYP11B1). The concentrations of these steroids can be determined using HTRF assays from CisBio analyzing either Aldosterone or Cortisol.
(§5) Inhibition of the release of produced steroids can be used as a measure of the respective enzyme inhibition by test compounds added during the cellular enzyme assay. The dose dependent inhibition of enzymatic activity by a compound is calculated by means of plotting added inhibitor concentrations (x-axes) vs. measured steroid/product level (y-axes). The inhibition is then calculated by fitting the following 4-parameter sigmoidal function (Morgan-Mercer-Flodin (MMF) model) to the raw data points using the least squares method:
(§6) [formula] wherein, A is the maximum y value, B is the EC50 factor determined using XLFit, C is the minimum y value and D is the slope value.
(§7) EC50 values for compounds claimed herein were tested with the G402-based assay system described. Cyp11B2 enzyme activity was tested in presence of 1 μM Deoxycorticosterone and variable amounts of inhibitors; Cyp11B1 enzyme activity was tested in presence of 1 μM Deoxycortisol and variable amounts of inhibitors.

[2] = molecular target: human CYP11B1 (Homo sapiens (Human), UniProt P15538); test: G-402 cellular enzyme assay, human CYP11B1 (cortisol release, HTRF); assay type: cell-based; details: G-402 cells expressing human CYP11B1, 1 μM Deoxycortisol
Excerpt: as §1, §2, §3, §4, §5, §6, §7

Sequence of human CYP11B1 (P15538 25-503): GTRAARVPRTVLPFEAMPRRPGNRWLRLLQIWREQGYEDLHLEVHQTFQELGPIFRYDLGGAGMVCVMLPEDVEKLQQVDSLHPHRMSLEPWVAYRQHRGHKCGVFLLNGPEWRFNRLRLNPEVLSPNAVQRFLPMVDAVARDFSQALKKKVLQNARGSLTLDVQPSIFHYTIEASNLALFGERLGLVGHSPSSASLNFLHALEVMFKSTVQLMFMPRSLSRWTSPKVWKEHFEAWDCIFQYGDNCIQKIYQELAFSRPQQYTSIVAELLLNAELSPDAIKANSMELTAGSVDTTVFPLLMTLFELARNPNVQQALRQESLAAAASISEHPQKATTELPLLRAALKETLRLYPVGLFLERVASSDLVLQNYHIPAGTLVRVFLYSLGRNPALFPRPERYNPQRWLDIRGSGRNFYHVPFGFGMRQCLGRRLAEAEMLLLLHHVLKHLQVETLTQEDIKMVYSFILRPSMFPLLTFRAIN
Sequence of CYP11B2 (P19099 25-503): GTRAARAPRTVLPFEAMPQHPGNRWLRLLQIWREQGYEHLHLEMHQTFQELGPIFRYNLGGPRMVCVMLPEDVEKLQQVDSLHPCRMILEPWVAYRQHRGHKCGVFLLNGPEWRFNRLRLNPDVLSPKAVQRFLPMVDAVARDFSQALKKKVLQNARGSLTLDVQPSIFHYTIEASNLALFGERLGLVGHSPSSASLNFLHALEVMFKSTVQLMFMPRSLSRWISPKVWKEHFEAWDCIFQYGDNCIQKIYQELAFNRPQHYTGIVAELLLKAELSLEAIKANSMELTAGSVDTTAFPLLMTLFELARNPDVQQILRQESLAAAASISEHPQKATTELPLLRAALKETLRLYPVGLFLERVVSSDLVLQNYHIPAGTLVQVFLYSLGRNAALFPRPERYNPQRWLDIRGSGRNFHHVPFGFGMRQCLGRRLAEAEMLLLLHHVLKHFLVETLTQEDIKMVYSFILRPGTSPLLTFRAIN

Compound	EC50 [1] [nM]	EC50 [2] [nM]
Cc1ccncc1C(=O)N1CC(Nc2cncc(N3C(=O)c4ccc(Cl)cc4[C@H]3C)c2)C1 (single isomer, unassigned) [Example 26, (3S or 3R)-5-Chloro-3-methyl-2-[5-[[1-(4-methylpyridine-3-carbonyl)azetidin-3-yl]amino]-3-pyridyl]isoindolin-1-one]	16	1910
Cc1ccncc1C(=O)N1CC(Nc2cncc(N3C(=O)c4ccc(Cl)cc4[C@H]3C)c2)C1 (single isomer, unassigned) [Example 25, (3R or 3S)-5-Chloro-3-methyl-2-[5-[[1-(4-methylpyridine-3-carbonyl)azetidin-3-yl]amino]-3-pyridyl]isoindolin-1-one]	7	4360
C[C@@H]1c2cc(Cl)ccc2C(=O)N1c1cncc(NC2CN(S(=O)(=O)C3CC3)C2)c1 (single isomer, unassigned) [Example 30, (3S or 3R)-5-Chloro-2-[5-[(1-cyclopropylsulfonylazetidin-3-yl)amino]-3-pyridyl]-3-methyl-isoindolin-1-one]	18	652
Cc1cncc(C(=O)N2CC(Nc3cncc(N4CCc5cc(Cl)ccc5C4=O)c3)C2)c1 [Example 18, 6-Chloro-2-[5-[[1-(5-methylpyridine-3-carbonyl)azetidin-3-yl]amino]pyridin-3-yl]-3,4-dihydroisoquinolin-1-one]	9	1290
Cc1noc(C)c1C(=O)N1CC(Nc2cncc(N3CCc4cc(Cl)ccc4C3=O)c2)C1 [Example 20, 6-Chloro-2-[5-[[1-(3,5-dimethylisoxazole-4-carbonyl)azetidin-3-yl]amino]-3-pyridyl]-3,4-dihydroisoquinolin-1-one]	55	3880
CN(c1cncc(N2C(=O)c3ccc(Cl)cc3C2(C)C)c1)C1CN(S(=O)(=O)C2CC2)C1 [Example 3, 5-Chloro-2-[5-[(1-cyclopropylsulfonylazetidin-3-yl)-methylamino]pyridin-3-yl]-3,3-dimethylisoindol-1-one]	0.4	18
O=C(c1ncccc1Cl)N1CC(Nc2cncc(N3CCc4cc(Cl)ccc4C3=O)c2)C1 [Example 17, 6-Chloro-2-[5-[[1-(3-chloropyridine-2-carbonyl)azetidin-3-yl]amino]pyridin-3-yl]-3,4-dihydroisoquinolin-1-one]	145	1910
Cn1cncc1C(=O)N1CC(Nc2cncc(N3C(=O)c4ccc(C#N)cc4C3(C)C)c2)C1 [Example 39, 3,3-Dimethyl-2-[5-[[1-(3-methylimidazole-4-carbonyl)azetidin-3-yl]amino]-3-pyridyl]-1-oxo-isoindoline-5-carbonitrile]	25	13900
Cn1ccnc1C(=O)N1CC(Nc2cncc(N3C(=O)c4ccc(C#N)cc4C3(C)C)c2)C1 [Example 34, 3,3-Dimethyl-2[5-[[1-(1-methylimidazole-2-carbonyl)azetidin-3-yl]amino]-3-pyridyl]-1-oxo-isoindoline-5-carbonitrile]	5	586
Cn1ccnc1C(=O)N1CC(Nc2cncc(N3CCc4cc(Cl)ccc4C3=O)c2)C1 [Example 22, 6-Chloro-2-[5-[[1-(1-methylimidazole-2-carbonyl)azetidin-3-yl]amino]-3-pyridyl]-3,4-dihydroisoquinolin-1-one]	23	2090
Cn1cc(C(=O)N2CC(Nc3cncc(N4C(=O)c5ccc(Cl)cc5C4(C)C)c3)C2)cn1 [Example 24, 5-Chloro-3,3-dimethyl-2-[5-[[1-(1-methylpyrazole-4-carbonyl)azetidin-3-yl]amino]-3-pyridyl]isoindolin-1-one]	1	6020
Cn1ccnc1C(=O)N1CC(Nc2cncc(N3C(=O)c4ccc(Cl)cc4C3(C)C)c2)C1 [Example 2, 5-Chloro-3,3-dimethyl-2-[5-[[1-(1-methylimidazole-2-carbonyl)azetidin-3-yl]amino]-3-pyridyl]isoindolin-1-one]	4	450
O=C1c2ccc(Cl)cc2CCN1c1cncc(NC2CN(S(=O)(=O)C3CC3)C2)c1 [Example 15, 6-Chloro-2-[5-[(1-cyclopropylsulfonylazetidin-3-yl)amino]pyridin-3-yl]-3,4-dihydroisoquinolin-1-one]	148	9560

Further lines, results first:

EC50 [1] [nM]	EC50 [2] [nM]	Compound
24	13300	CC1(C)c2cc(C#N)ccc2C(=O)N1c1cncc(NC2CCN(S(=O)(=O)C3CC3)CC2)c1 [Example 35, 2-[5-[(1-Cyclopropylsulfonyl-4-piperidyl)amino]-3-pyridyl]-3,3-dimethyl-1-oxo-isoindoline-5-carbonitrile]
31	29500	Cn1cc(C(=O)N2CC(Nc3cncc(N4C(=O)c5ccc(C#N)cc5C4(C)C)c3)C2)cn1 [Example 33]
1	4	CN(c1cncc(N2C(=O)c3ccc(Cl)cc3C2(C)C)c1)C1CCN(S(=O)(=O)C2CC2)CC1 [Example 6]
22	1400	CC1(C)c2cc(C#N)ccc2C(=O)N1c1cncc(NC2CCN(C(=O)c3ncccc3Cl)CC2)c1 [Example 36, 2-[5-[[1-(3-Chloropyridine-2-carbonyl)-4-piperidyl]amino]-3-pyridyl]-3,3-dimethyl-1-oxo-isoindoline-5-carbonitrile]
52	9570	Cn1cc(C(=O)N2CCC(Nc3cncc(N4C(=O)c5ccc(C#N)cc5C4(C)C)c3)CC2)cn1 [Example 40, 3,3-Dimethyl-2-[5-[[1-(1-methylpyrazole-4-carbonyl)-4-piperidyl]amino]-3-pyridyl]-1-oxo-isoindoline-5-carbonitrile]
70	10500	Cc1ccncc1C(=O)N1CCC(Nc2cncc(N3C(=O)c4ccc(C#N)cc4C3(C)C)c2)CC1 [Example 37, 3,3-Dimethyl-2[5-[[1-(4-methylpyridine-3-carbonyl)-4-piperidyl]amino]-3-pyridyl]-1-oxo-isoindoline-5-carbonitrile]
17	190	Cn1ccnc1C(=O)N1CCC(Nc2cncc(N3C(=O)c4ccc(C#N)cc4C3(C)C)c2)CC1 [Example 41, 3,3-Dimethyl-2-[5-[[1-(1-methylimidazole-2-carbonyl)-4-piperidyl]amino]-3-pyridyl]-1-oxo-isoindoline-5-carbonitrile]
9	1250	CC1(C)c2cc(Cl)ccc2C(=O)N1c1cncc(NC2CN(S(=O)(=O)C3CC3)C2)c1 [Example 1, 5-Chloro-2-[5-[(1-cyclopropylsulfonylazetidin-3-yl)amino]pyridin-3-yl]-3,3-dimethylisoindol-1-one]
230	> 30000	CC1(C)c2cc(Cl)ccc2C(=O)N1c1cncc(NC2CCCN(S(=O)(=O)C3CC3)C2)c1 (single isomer, unassigned; (+)) [Example 7, (+)-5-Chloro-2-[5-[[(3R or 3S)-1-cyclopropylsulfonylpiperidin-3-yl]amino]pyridin-3-yl]-3,3-dimethylisoindol-1-one]
1	133	CN(c1cncc(N2C(=O)c3ccc(Cl)cc3C2(C)C)c1)C1CCN(S(=O)(=O)C2CC2)C1 (single isomer, unassigned; (-)) [Example 5, (−)-5-chloro-2-[5-[[(3S or 3R)-1-cyclopropylsulfonylpyrrolidin-3-yl]-methylamino]pyridin-3-yl]-3,3-dimethylisoindol-1-one]
